Laboratory results taken from article PMC7866801, “Design and Synthesis of N-Substituted 3,4-Pyrroledicarboximides as Potential Anti-Inflammatory Agents” (International Journal of Molecular Sciences, 2021).

Key:
COX-2 = molecular target: T1, COX-2 (Homo sapiens, UniProt P35354); experiment: colorimetric COX peroxidase inhibitor screening kit, […] nm; assay type: biochemical; conditions: tested at 100 µM only, 2 min, RT; unreliable
T1 construct: gene PTGS2; homodimer
T1 sequence (P35354 18-604): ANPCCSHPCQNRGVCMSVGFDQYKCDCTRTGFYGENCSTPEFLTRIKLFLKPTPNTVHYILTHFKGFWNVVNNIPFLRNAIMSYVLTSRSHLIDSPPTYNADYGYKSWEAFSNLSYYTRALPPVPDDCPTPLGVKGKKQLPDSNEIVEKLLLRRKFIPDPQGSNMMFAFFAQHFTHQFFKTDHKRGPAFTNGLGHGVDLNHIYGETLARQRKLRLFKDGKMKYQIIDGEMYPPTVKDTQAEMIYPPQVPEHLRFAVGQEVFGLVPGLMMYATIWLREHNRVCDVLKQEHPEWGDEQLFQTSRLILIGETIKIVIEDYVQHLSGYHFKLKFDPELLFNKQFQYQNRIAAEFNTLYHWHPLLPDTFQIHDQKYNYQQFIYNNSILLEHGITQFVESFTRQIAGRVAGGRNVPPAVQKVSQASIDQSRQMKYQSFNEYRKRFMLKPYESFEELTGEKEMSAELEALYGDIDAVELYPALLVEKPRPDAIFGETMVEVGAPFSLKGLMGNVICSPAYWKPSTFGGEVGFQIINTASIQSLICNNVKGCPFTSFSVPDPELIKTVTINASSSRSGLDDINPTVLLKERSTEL

COX-1 = molecular target: T2, COX-1 (Ovis aries, UniProt P05979); experiment: as above; assay type: biochemical; conditions: tested at 100 µM only, 2 min, RT; unreliable
T2 construct: gene PTGS1; homodimer
T2 sequence (P05979 25-600): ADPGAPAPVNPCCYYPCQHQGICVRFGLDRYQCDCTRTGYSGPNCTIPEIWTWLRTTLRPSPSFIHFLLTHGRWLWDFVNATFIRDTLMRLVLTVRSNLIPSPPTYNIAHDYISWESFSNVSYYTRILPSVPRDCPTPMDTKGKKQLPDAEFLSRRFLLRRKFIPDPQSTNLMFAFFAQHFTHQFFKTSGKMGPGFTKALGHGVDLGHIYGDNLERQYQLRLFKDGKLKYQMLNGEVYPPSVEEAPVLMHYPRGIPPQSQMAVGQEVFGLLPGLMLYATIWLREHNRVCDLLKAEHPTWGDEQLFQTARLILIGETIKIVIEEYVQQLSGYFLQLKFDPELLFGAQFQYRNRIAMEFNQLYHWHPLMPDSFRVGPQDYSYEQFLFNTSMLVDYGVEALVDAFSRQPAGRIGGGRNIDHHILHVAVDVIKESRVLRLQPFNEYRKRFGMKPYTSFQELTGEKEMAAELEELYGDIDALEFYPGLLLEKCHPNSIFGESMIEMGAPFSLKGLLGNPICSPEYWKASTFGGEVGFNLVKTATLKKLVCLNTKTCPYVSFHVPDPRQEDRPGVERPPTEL

Cyclooxygenase Inhibition Assay IC50 [μM] / COX-2 (COX-2) | Cyclooxygenase Inhibition Assay IC50 [μM] / COX-1 (COX-1) | Structure (SMILES)
60.85 ± 0.02 µM | 87.90 ± 0.03 µM | Cc1c2c(c(C)n1-c1ccccc1)C(=O)N(CN1CCN(c3ccc(Br)cc3)CC1)C2=O [2a, 4,6-dimethyl-5-phenyl-2{[4-(p-bromophenyl)-1-piperazinyl]methyl}pyrrolo[3,4-c]pyrrole-1,3(2H,5H)-dione]
61.46 ± 0.02 µM | 94.17 ± 0.04 µM | Cc1c2c(c(C)n1-c1ccccc1Cl)C(=O)N(CN1CCN(c3ccc(Br)cc3)CC1)C2=O [2b, 4,6-dimethyl-5-(o-chlorophenyl)-2-{[4-(p-bromophenyl)-1-piperazinyl]methyl}pyrrolo[3,4-c]pyrrole-1,3(2H,5H)-dione]
61.53 ± 0.09 µM | 94.56 ± 0.02 µM | Cc1c2c(c(C)n1-c1ccccc1)C(=O)N(CN1CCN(c3ccccc3C#N)CC1)C2=O [2c, 4,6-dimethyl-5-phenyl-2{[4-(o-cyanophenyl)-1-piperazinyl]methyl}pyrrolo[3,4-c]pyrrole-1,3(2H,5H)-dione]
60.24 ± 0.03 µM | 77.46 ± 0.06 µM | Cc1c2c(c(C)n1-c1ccccc1)C(=O)N(CN1CCN(c3cccc(C(F)(F)F)c3)CC1)C2=O [2d, 4,6-dimethyl-5-phenyl-2{[4-(m-trifluoromethylphenyl)-1-piperazinyl]methyl}pyrrolo[3,4-c]pyrrole-1,3(2H,5H)-dione]
60.75 ± 0.02 µM | 78.73 ± 0.06 µM | CCCCn1c(C)c2c(c1C)C(=O)N(CN1CCN(c3ccc(C)cc3)CC1)C2=O [2e, 4,6-dimethyl-5-n-butyl-2-{[4-(p-methylphenyl)-1-piperazinyl]methyl}pyrrolo[3,4-c]pyrrole-1,3-(2H,5H)-dione]
58.87 ± 0.08 µM | 80.51 ± 0.06 µM | CCCCn1c(C)c2c(c1C)C(=O)N(CN1CCN(c3ncccn3)CC1)C2=O [2f, 4,6-dimethyl-5-n-butyl-2-{[4-(2-pyrimidinyl)piperazin-1-yl]methyl}pyrrolo[3,4-c]pyrrole-1,3(2H,5H)-dione]
59.92 ± 0.05 µM | 80.25 ± 0.06 µM | Cc1c2c(c(C)n1-c1ccccc1)C(=O)N(CN1CCN(C3CCCCC3)CC1)C2=O [2g, 4,6-dimethyl-5-phenyl-2-[(4-cyclohexyl-1-piperazinyl)methyl]pyrrolo[3,4-c]pyrrole-1,3(2H,5H)-dione]
59.37 ± 0.05 µM | 76.54 ± 0.06 µM | Cc1c2c(c(C)n1-c1ccccc1Cl)C(=O)N(CN1CCN(C3CCCCC3)CC1)C2=O [2h, 4,6-dimethyl-5-(o-chlorophenyl)-2-[(4-cyclohexyl-1-piperazinyl)methyl]pyrrolo[3,4-c]pyrrole-1,3(2H,5H)-dione]
60.96 ± 0.04 µM | 79.87 ± 0.07 µM | CCCCn1c(C)c2c(c1C)C(=O)N(CN1CCN(C3CCCCC3)CC1)C2=O [2i, 4,6-dimethyl-5-n-butyl-2-[(4-cyclohexyl-1-piperazinyl)methyl]pyrrolo[3,4-c]pyrrole-1,3(2H,5H)-dione]
59.77 ± 0.11 µM | 84.90 ± 0.05 µM | CCCCn1c(C)c2c(c1C)C(=O)N(CN1CCN(CCO)CC1)C2=O [2j, 4,6-dimethyl-5-n-butyl-2-{[4-hydroxyethyl-1-piperazinyl]methyl}pyrrolo[3,4-c]pyrrole-1,3(2H,5H)-dione]
58.43 ± 0.06 µM | 83.47 ± 0.05 µM | Cc1c2c(c(C)n1-c1ccccc1)C(=O)N(CN1CCNCC1)C2=O [2k, 4,6-dimethyl-5-phenyl-2-[(piperazinyl)methyl]pyrrolo[3,4-c]pyrrole-1,3(2H,5H)-dione]
59.33 ± 0.09 µM | 82.72 ± 0.04 µM | Cc1c2c(c(C)n1-c1ccccc1)C(=O)N(CN1CCOCC1)C2=O [2l, 4,6-dimethyl-5-phenyl-2-[(morpholinyl)methyl]pyrrolo[3,4-c]pyrrole-1,3(2H,5H)-dione]
60.39 ± 0.02 µM | 88.15 ± 0.02 µM | CCCCn1c(C)c2c(c1C)C(=O)N(CN1CCC(c3ccccc3)CC1)C2=O [2m, 4,6-dimethyl-5-n-butyl-2-[(4-phenyl-1-piperidinyl)methyl]pyrrolo[3,4-c]pyrrole-1,3(2H,5H)-dione]
57.65 ± 0.04 µM | 77.59 ± 0.09 µM | CCCCn1c(C)c2c(c1C)C(=O)N(CN1CCC(O)(c3ccc(Br)cc3)CC1)C2=O [2n, 4,6-dimethyl-5-n-butyl-2-{[4-(p-bromophenyl)-4-hydroxypiperidin-1-yl]methyl}pyrrolo[3,4-c]pyrrole-1,3(2H,5H)-dione]
58.38 ± 0.16 µM | 78.25 ± 0.10 µM | CCCCn1c(C)c2c(c1C)C(=O)N(CN1CCC(O)(c3ccc(Cl)cc3)CC1)C2=O [2o, 4,6-dimethyl-5-n-butyl-2-{[4-(p-chlorophenyl)-4-hydroxypiperidin-1-yl]methyl}pyrrolo[3,4-c]pyrrole-1,3(2H,5H)-dione]
59.37 ± 0.07 µM | 82.94 ± 0.04 µM | CCCCn1c(C)c2c(c1C)C(=O)N(CN1CCC(O)(Cc3ccccc3)CC1)C2=O [2p, 4,6-dimethyl-5-n-butyl-2-{[4-benzyl-4-hydroxypiperidin-1-yl]methyl}pyrrolo[3,4-c]pyrrole-1,3(2H,5H)-dione]
